# Measurements published in BindingDB's records for doi:10.1074/jbc.M110.120576 (Pharmaleads, 2010).
# Target: EEF1AKMT4-ECE2 readthrough transcript protein (Homo sapiens, UniProt P0DPD8)
# Assay: Enzymatic Assay
# From the text: Inhibitory assay against ECE-2.
# EEF1AKMT4-ECE2 readthrough transcript protein, sequence (P0DPD8 whole entry): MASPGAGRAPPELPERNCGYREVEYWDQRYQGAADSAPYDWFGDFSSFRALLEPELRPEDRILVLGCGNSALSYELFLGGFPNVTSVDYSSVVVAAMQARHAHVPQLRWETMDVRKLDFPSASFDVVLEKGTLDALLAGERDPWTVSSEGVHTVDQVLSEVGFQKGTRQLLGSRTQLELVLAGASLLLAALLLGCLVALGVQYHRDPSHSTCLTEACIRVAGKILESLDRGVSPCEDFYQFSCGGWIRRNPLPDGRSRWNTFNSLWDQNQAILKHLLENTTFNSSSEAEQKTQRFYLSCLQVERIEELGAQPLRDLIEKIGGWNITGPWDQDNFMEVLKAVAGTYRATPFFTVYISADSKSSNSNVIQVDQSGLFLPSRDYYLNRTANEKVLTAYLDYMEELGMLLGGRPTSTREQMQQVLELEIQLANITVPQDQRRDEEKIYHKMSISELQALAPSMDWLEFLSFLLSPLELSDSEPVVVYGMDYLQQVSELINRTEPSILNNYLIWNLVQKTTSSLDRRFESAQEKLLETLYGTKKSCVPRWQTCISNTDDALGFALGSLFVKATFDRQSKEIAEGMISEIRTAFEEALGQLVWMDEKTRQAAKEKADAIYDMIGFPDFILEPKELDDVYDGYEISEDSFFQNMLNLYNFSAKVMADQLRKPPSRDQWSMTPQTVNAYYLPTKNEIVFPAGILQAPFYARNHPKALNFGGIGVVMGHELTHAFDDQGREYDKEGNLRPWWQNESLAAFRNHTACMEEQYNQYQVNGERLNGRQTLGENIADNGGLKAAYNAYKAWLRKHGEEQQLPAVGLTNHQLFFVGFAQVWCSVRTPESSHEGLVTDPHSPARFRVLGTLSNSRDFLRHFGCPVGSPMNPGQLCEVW
Compound,IC50 [nM],Ki [nM]
O=C(O)CNC(=O)[C@@H](CS)Cc1ccccc1 [2-(2-benzyl-3-sulfanylpropanamido)acetic acid],> 100000,> 100000
C[C@H](CS)C(=O)N1CCC[C@H]1C(=O)O [(2S)-1-[(2S)-2-methyl-3-sulfanylpropanoyl]pyrrolidine-2-carboxylic acid],> 100000,> 100000
"O=C(N[C@@H](Cc1c[nH]c2ccccc12)C(=O)O)C(CS)C1CCc2cc(Br)ccc21 (stereo partly drawn) [(2S)-2-[2-(5-bromo-2,3-dihydro-1H-inden-1-yl)-3-sulfanylpropanamido]-3-(1H-indol-3-yl)propanoic acid, 1]",43.4,22.3
"CC(C)C[C@H](NP(=O)(O)O[C@@H]1O[C@@H](C)[C@H](O)[C@@H](O)[C@H]1O)C(=O)N[C@@H](Cc1c[nH]c2ccccc12)C(=O)O [(S)-2-{(R)-2-[Hydroxy-((2R,3R,4R,5R,6S)-3,4,5-trihydroxy-6-methyl-tetrahydro-pyran-2-yloxy)-phosphorylamino]-4-methyl-pentanoylamino}-3-(1H-indol-3-yl)-propionic acid]",2.33,1.2

# The next lines start with the values.
IC50 [nM],Ki [nM],Compound
15.1,7.7,"O=C(O)[C@H](Cc1c[nH]c2ccccc12)NC(=O)[C@H](CS)C1CCc2ccccc21 (stereo partly drawn) [(2S)-2-[(2R)-2-(2,3-dihydro-1H-inden-1-yl)-3-sulfanylpropanamido]-3-(1H-indol-3-yl)propanoic acid, 2]"
380,195,C[C@H](NC(=O)[C@@H](CC(=O)NO)Cc1ccccc1)C(=O)O [Kelatorphan]
> 10000,> 10000,O=C(O)CC(=O)N[C@@H](CS)Cc1ccccc1 [Retrothiorphan]
